Measured values published in patent US7807350B2 (The University of Chicago, priority 2003, dated 2010).
Read-outs that look alike come from different tables or passages of the source.

How the values were obtained:
[1] = relative to irinotecan; cited from earlier work
[2] = Pharmacokinetic analysis of plasma irinotecan, SN-38 and SN-38G in patients, by TA indel genotype; assay type: in vivo, human; details: for SN-38 AUC (mean) / SN-38G AUC (mean): after irinotecan
Protocol: Samples of 7 ml were collected into green top sodium heparinized Vacutainer® tubes prior to the infusion; 30, 60, and 90 minutes during the infusion; and 10, 20, 30, 45, and 60 minutes and 1.5, 2, 4, 6, 12, and 24 hours after the infusion. Samples were centrifuged (2500 rpm, 20 min, 4° C.) and the plasma was immediately separated, transferred as two aliquots into storage tubes, frozen at −80° C. until analysis.

[3] = Toxicity (neutropenia, diarrhea, toxic death) in cycle 1 of irinotecan 350 mg/m2 every 3 weeks in cancer patients, by UGT1A1 genotype; details: for frequency of grade 4 neutropenia: cycle 1
[4] = cited from earlier work
[5] = Objective tumor response in the irinotecan 350 mg/m2 every 3 weeks trial; assay type: in vivo, human
Protocol: History, physical examination, complete blood count (CBC) with differential, serum chemistry profile (electrolytes, blood urea nitrogen, creatinine, glucose, albumin, alkaline phosphatase, GGTP, AST, ALT, total and conjugated bilirubin, uric acid, and lactate dehydrogenase), and coagulation profile (prothrombin time and partial thromboplastin time) were conducted prior to first treatment. Thereafter, history, physical examination, and toxicity assessment were conducted on day 1 of each cycle unless treatment-related toxicity required more frequent follow up. CBC and serum chemistry profile were obtained weekly throughout treatment, though CBCs were obtained 3 times per week with the appearance of grade 3 or 4 neutropenia or thrombocytopenia. Toxicity assessment was done according to the NCI common toxicity criteria, version 2.0 (website: ctep.cancer.gov). Objective tumor assessment by appropriate radiographic imaging was performed prior to starting therapy and after every 2 cycles.

[6] = 6/6 TA indel genotype, 30 patients
[7] = 6/7 TA indel genotype, 25 patients
[8] = 7/7 TA indel genotype, 6 patients

SMILES: CCc1c2c(nc3ccc(O)cc13)-c1cc3c(c(=O)n1C2)COC(=O)[C@]3(O)CC [SN-38, 7-ethyl-10-hydroxycamptothecin]
- antitumor activity higher than irinotecan [1]: 100-1,000 fold
- Glucuronidation Ratio (SN-38G AUC/SN-38 AUC) [2, 6]: 6.52
- SN-38 AUC (mean) [2, 6]: 335.9 ng·h/mL
- Glucuronidation Ratio (SN-38G AUC/SN-38 AUC) [2, 7]: 5.55
- SN-38 AUC (mean) [2, 7]: 458.4 ng·h/mL
- Glucuronidation Ratio (SN-38G AUC/SN-38 AUC) [2, 8]: 3.59
- SN-38 AUC (mean) [2, 8]: 542.0 ng·h/mL

SMILES: CCc1c2c(nc3ccc(O[C@@H]4O[C@H](C(=O)O)[C@@H](O)[C@H](O)[C@H]4O)cc13)-c1cc3c(c(=O)n1C2)COC(=O)[C@]3(O)CC [SN-38G, 10-O-glucuronyl-SN-38]
- SN-38G AUC (mean) [2, 6]: 1954.2 ng·h/mL
- SN-38G AUC (mean) [2, 7]: 1887.9 ng·h/mL
- SN-38G AUC (mean) [2, 8]: 1819.1 ng·h/mL

SMILES: CCc1c2c(nc3ccc(OC(=O)N4CCC(N5CCCCC5)CC4)cc13)-c1cc3c(c(=O)n1C2)COC(=O)[C@]3(O)CC [irinotecan, 7-ethyl-10-[4-(1-piperidino)-1-piperidino]carbonyloxycamptothecin]
- toxic death ([3]; neutropenia-related sepsis, day 11 of cycle 1, 7/7 genotype): One toxic death
- frequency of grade 4 neutropenia ([3]; patients with 6/6 genotype (0/30)): 0%
- frequency of grade 4 neutropenia ([3]; patients with 7/7 genotype (3/6)): 50%
- cases of grade 4 neutropenia ([3]; patients with pretreatment bilirubin less than 0.6 mg/dl): No cases
- patients with grade 3-4 diarrhea ([4]; early single agent trials, dose limiting): about one third
- frequency of grade 3-4 diarrhea ([4]; three-weekly regimen): 19%
- mortality rate ([4]; three-weekly single agent regimen): 1.6%
- frequency of grade 3-4 diarrhea ([4]; weekly schedule): 36%
- mortality rate ([4]; weekly single agent regimen): 5.3%
- objective responses ([5]; 60 patients assessable for response): 3
- patients achieving a partial response ([5]; colorectal and head and neck cancer, 6/7 genotype): Two
- patients achieving a complete response ([5]; colorectal cancer, 6/6 genotype): One
